The subject of the assay is L1210 leukemia ip in BDF1 mice, survival T/C. Nature of the assay: NCI In Vivo Anticancer Drug Screen. Data for tumor model L1210 Leukemia (intraperitoneal) in B6D2F1 (BDF1) mice. To be noted: endpoint: mean survival time, higher = longer survival. The gist of the method: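 Transplantable tumor model; survival measured in treated vs vehicle control mice. Value = treated/control.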

[1] abbreviates: dose: 10.0 mg/kg/injection, schedule: Q01DX001 (ip), vehicle: saline.
Setting [2] is: dose: 15.0 mg/kg/injection, schedule: Q01DX001 (ip), vehicle: saline.
[3] abbreviates: dose: 100.0 mg/kg/injection, schedule: Q01DX009 (ip), vehicle: saline.
[4] abbreviates: dose: 100.0 mg/kg/injection, schedule: Q04DX003 (ip), vehicle: saline.
[5] abbreviates: dose: 200.0 mg/kg/injection, schedule: Q01DX009 (ip), vehicle: saline.
Where [6] appears, read: dose: 200.0 mg/kg/injection, schedule: Q04DX003 (ip), vehicle: saline.
Where [7] appears, read: dose: 400.0 mg/kg/injection, schedule: Q04DX003 (ip), vehicle: saline.
The mark [8] stands for this setting: dose: 100.0 mg/kg/injection, schedule: Q01DX001 (ip), vehicle: saline.
The mark [9] stands for this setting: dose: 200.0 mg/kg/injection, schedule: Q01DX001 (ip), vehicle: saline.
Where [10] appears, read: dose: 400.0 mg/kg/injection, schedule: Q01DX001 (ip), vehicle: saline.
The mark [11] stands for this setting: dose: 100.0 mg/kg/injection, schedule: Q01DX009 (ip), vehicle: Klucel (hydroxypropylcellulose) (HPC).
Setting [12] is: dose: 200.0 mg/kg/injection, schedule: Q01DX009 (ip), vehicle: Klucel (hydroxypropylcellulose) (HPC).
Where [13] appears, read: dose: 100.0 mg/kg/injection, schedule: Q04DX003 (ip), vehicle: Klucel (hydroxypropylcellulose) (HPC).
The mark [14] stands for this setting: dose: 200.0 mg/kg/injection, schedule: Q04DX003 (ip), vehicle: Klucel (hydroxypropylcellulose) (HPC).
[15] abbreviates: dose: 400.0 mg/kg/injection, schedule: Q04DX003 (ip), vehicle: Klucel (hydroxypropylcellulose) (HPC).

Each structure is given as a SMILES string. Inconclusive results and toxic doses are left out.

For `Nc1ccc(N(CCCl)CCN(CCCl)c2ccc(N)cc2)cc1`, the T/C (dose: 0.25 mg/kg/injection, schedule: Q01DX009 (ip), vehicle: saline) is 102 % of control; the T/C (dose: 0.5 mg/kg/injection, schedule: Q01DX009 (ip), vehicle: saline) is 109 % of control; the T/C (dose: 1.0 mg/kg/injection, schedule: Q01DX009 (ip), vehicle: saline) is 118 % of control; the T/C (dose: 1.2 mg/kg/injection, schedule: Q01DX009 (ip), vehicle: carboxymethylcellulose (CMC)) is 109 % of control; the T/C (dose: 2.5 mg/kg/injection, schedule: Q01DX001 (ip), vehicle: carboxymethylcellulose (CMC)) was 106 % of control; the T/C (dose: 2.5 mg/kg/injection, schedule: Q01DX009 (ip), vehicle: carboxymethylcellulose (CMC)) is 111 % of control. Besides, the T/C by setting is: (dose: 2.9 mg/kg/injection, schedule: Q01DX001 (ip), vehicle: carboxymethylcellulose (CMC)) 114 % of control; (dose: 2.9 mg/kg/injection, schedule: Q01DX009 (ip), vehicle: carboxymethylcellulose (CMC)) 119 % of control; (dose: 2.9 mg/kg/injection, schedule: Q01DX009 (ip), vehicle: saline) 169 % of control; (dose: 4.0 mg/kg/injection, schedule: Q01DX001 (ip), vehicle: saline) 106 % of control; (dose: 4.4 mg/kg/injection, schedule: Q01DX001 (ip), vehicle: carboxymethylcellulose (CMC)) 119 % of control; (dose: 4.4 mg/kg/injection, schedule: Q01DX009 (ip), vehicle: saline) 159 % of control. Also, the T/C (dose: 5.0 mg/kg/injection, schedule: Q01DX001 (ip), vehicle: carboxymethylcellulose (CMC)) is 115 % of control; the T/C (dose: 6.0 mg/kg/injection, schedule: Q01DX001 (ip), vehicle: saline) was 122 % of control; the T/C under setting [1] was 111 % of control; the T/C (dose: 10.0 mg/kg/injection, schedule: Q01DX009 (ip), vehicle: carboxymethylcellulose (CMC)) is 106 % of control; the T/C (dose: 10.0 mg/kg/injection, schedule: Q01DX009 (ip), vehicle: saline) was 105 % of control; the T/C under setting [2] is 117 % of control.
`COc1cc(CC2COCC2Cc2ccc3c(c2)OCO3)cc(OC)c1OC` (stereo not given): the T/C runs as follows: (dose: 25.0 mg/kg/injection, schedule: Q01DX009 (ip), vehicle: acetone) 110 % of control; (dose: 50.0 mg/kg/injection, schedule: Q01DX009 (ip), vehicle: acetone) 101 % of control; (dose: 100.0 mg/kg/injection, schedule: Q01DX009 (ip), vehicle: acetone) 103 % of control.
In the case of `COC(=O)C(=O)NCc1cnccn1`, the T/C was 105 % of control under setting [3]; 93 % of control under setting [4]; 110 % of control under setting [5]; 107 % of control under setting [6]; 111 % of control (dose: 400.0 mg/kg/injection, schedule: Q01DX009 (ip), vehicle: saline); 100 % of control under setting [7].
On to `NC1C(O)CCCC1O` (stereo not given), for which the T/C is 107 % of control under setting [8], 102 % of control under setting [9] and 102 % of control under setting [10].
With `CC(=O)[O][Ge]([CH2]CC(C)C)([CH2]CC(C)C)[CH2]CC(C)C`, the T/C was 100 % of control (dose: 50.0 mg/kg/injection, schedule: Q01DX001 (ip), vehicle: carboxymethylcellulose (CMC)); 100 % of control (dose: 50.0 mg/kg/injection, schedule: Q01DX001 (ip), vehicle: saline); 100 % of control (dose: 100.0 mg/kg/injection, schedule: Q01DX001 (ip), vehicle: carboxymethylcellulose (CMC)); 102 % of control under setting [8]; 100 % of control (dose: 200.0 mg/kg/injection, schedule: Q01DX001 (ip), vehicle: carboxymethylcellulose (CMC)); 106 % of control under setting [9]. Moreover, the T/C by setting is: (dose: 400.0 mg/kg/injection, schedule: Q01DX001 (ip), vehicle: carboxymethylcellulose (CMC)) 96 % of control; under setting [10], 118 % of control.
`CCC[N+](CCC)(CCC)Cc1ccccc1`: the T/C is 108 % of control (dose: 5.0 mg/kg/injection, schedule: Q01DX001 (ip), vehicle: saline); 98 % of control under setting [1]; 96 % of control (dose: 20.0 mg/kg/injection, schedule: Q01DX001 (ip), vehicle: saline).
Take `Cc1ccc(O)c[n+]1[O-]`: the T/C is, setting by setting: under setting [8], 94 % of control; under setting [11], 103 % of control; under setting [4], 101 % of control; under setting [9], 97 % of control; under setting [12], 94 % of control; under setting [6], 97 % of control. Also, the T/C is 100 % of control under setting [10]; 103 % of control (dose: 400.0 mg/kg/injection, schedule: Q01DX009 (ip), vehicle: Klucel (hydroxypropylcellulose) (HPC)); 103 % of control under setting [7].
Consider `COCCOC(=O)c1ccc(C(N)=NC2CCCCC2)cc1`, for which the T/C under setting [8] is 96 % of control and the T/C under setting [9] is 97 % of control.
For `CCC1=C/C(=C/c2cc(Cl)ccc2O)C(=O)S1`, the T/C (dose: 100.0 mg/kg/injection, schedule: Q01DX001 (ip), vehicle: saline with Tween-80) was 91 % of control; the T/C (dose: 200.0 mg/kg/injection, schedule: Q01DX001 (ip), vehicle: saline with Tween-80) was 87 % of control; the T/C (dose: 400.0 mg/kg/injection, schedule: Q01DX001 (ip), vehicle: saline with Tween-80) is 94 % of control.
Consider `N#CC1CS(=O)(=O)C1`, for which the T/C by setting is: under setting [3], 108 % of control; under setting [4], 106 % of control; under setting [5], 103 % of control; under setting [6], 101 % of control; under setting [7], 102 % of control.
Take `CCOCCCN`: the T/C was 103 % of control (dose: 50.0 mg/kg/injection, schedule: Q01DX009 (ip), vehicle: saline); 95 % of control under setting [3]; 100 % of control under setting [4]; 106 % of control under setting [6].
As to `CN(C)c1ccc(/C=C/c2ccc3ccccc3n2)c(F)c1`, the T/C is 100 % of control under setting [13], 98 % of control under setting [14] and 93 % of control under setting [15].
Take `CCCCc1ccc(OCCBr)cc1`: the T/C was 102 % of control (dose: 100.0 mg/kg/injection, schedule: Q01DX009 (ip), vehicle: saline sonified); 95 % of control under setting [13]; 98 % of control (dose: 200.0 mg/kg/injection, schedule: Q01DX009 (ip), vehicle: saline sonified); 103 % of control under setting [14]; 95 % of control (dose: 400.0 mg/kg/injection, schedule: Q01DX009 (ip), vehicle: saline sonified); 101 % of control under setting [15].
Take `Cn1c(=O)c2c(nc(NCC[N+](C)(C)C)n2C)n(C)c1=O`: the T/C reads like this: under setting [2], 92 % of control; (dose: 30.0 mg/kg/injection, schedule: Q01DX001 (ip), vehicle: saline) 97 % of control.
Regarding `N#Cc1cc(C(N)=O)c(N)nc1SCc1ccccc1`, the T/C was 94 % of control (dose: 50.0 mg/kg/injection, schedule: Q01DX001 (ip), vehicle: Klucel (hydroxypropylcellulose) (HPC)); 86 % of control (dose: 100.0 mg/kg/injection, schedule: Q01DX001 (ip), vehicle: Klucel (hydroxypropylcellulose) (HPC)); 91 % of control (dose: 200.0 mg/kg/injection, schedule: Q01DX001 (ip), vehicle: Klucel (hydroxypropylcellulose) (HPC)).
Take `CN1C(=O)CCS(=O)(=O)C1c1ccc(Cl)c(Cl)c1` (stereo not given): the T/C (dose: 12.5 mg/kg/injection, schedule: Q01DX009 (ip), vehicle: Klucel (hydroxypropylcellulose) (HPC)) was 101 % of control; the T/C (dose: 25.0 mg/kg/injection, schedule: Q01DX009 (ip), vehicle: Klucel (hydroxypropylcellulose) (HPC)) is 114 % of control; the T/C (dose: 25.0 mg/kg/injection, schedule: Q04DX003 (ip), vehicle: Klucel (hydroxypropylcellulose) (HPC)) is 105 % of control; the T/C (dose: 50.0 mg/kg/injection, schedule: Q01DX009 (ip), vehicle: Klucel (hydroxypropylcellulose) (HPC)) is 103 % of control; the T/C (dose: 50.0 mg/kg/injection, schedule: Q04DX003 (ip), vehicle: Klucel (hydroxypropylcellulose) (HPC)) is 100 % of control; the T/C under setting [11] was 110 % of control. Also, the T/C runs as follows: under setting [13], 105 % of control; under setting [12], 104 % of control; under setting [14], 108 % of control.
Regarding `O=C(O)C1=NN(c2cc(Cl)c(S(=O)(=O)O)cc2Cl)C(=O)C1`, the T/C is, setting by setting: under setting [4], 92 % of control; under setting [6], 100 % of control; under setting [7], 106 % of control.

The record behind these values is PubChem BioAssay AID248 (DTP/NCI, 2004).
